Experimental findings from patent publication US6906046B2 (Celltech R & D Inc., priority 2000, dated 2005) are described below.

In one assay the test system is A549 cells. The assay can be described thus: Inhibition of TNF-α induced apoptosis in A549 cells (crystal violet). It is filed as cell-based. As to conditions: Homo sapiens; inhibition of TNF-α induced apoptosis in A549 cells; percent inhibition at 20 μM or IC50 in μM, given as class symbols; read-out: Apopt inh. As for the experimental part:
The protocol used for determining inhibition of apoptosis in A549 cells was adopted from a system previously described (K. Last-Barney et al., J. of Immunology 141:527-530, 1988). Briefly, 10^5 cells in 200 μL 10% FBS/RPMI antibiotic containing culture medium were plated into 96 well round bottom culture plates and allowed to adhere for 6 hours at 37° C. in a 5% CO2 atmosphere. The media was removed and 100 μL of RPMI+1 μg/mL actinomycin-D was added to each well, followed by 90 μL of test compound solution in 1% DMSO. This was incubated for 1 hour 10 AL TNF-α was added at its EC50 (normally 1 ng/mL FAC) and the plates incubated for 18 hours. The media was aspirated from the plates and 100 μL of 0.5% crystal violet in 20% methanol was added. After 10 minutes the plates were rinsed with water to remove excess stain, air dried, and read on a Spectramax at a wavelength of 590 nm. The data obtained from the Spectramax was converted into percent inhibition data at a concentration of 20 μM or IC50 measured in μM.

The next assay has as its system NFκB. The assay can be described thus: NFκB luciferase reporter assay in TNF-α stimulated A549 cells (E-selectin promoter). It is filed as cell-based. As to conditions: % inhibition or IC50 in μM; for IC50: Homo sapiens, TNF-α stimulated A549 cells, E-selectin promoter luciferase, given as class symbols, read-out: NFκB inh; for NFkB inh.: A549 cells with NFκB luciferase reporter, TNF-α at its EC50, 5 hours. How it is done:
A549 cells were stably transfected with an E-selectin promoter containing three NFκB binding sites driving luciferase expression. For the assay, 5×10^4 cells were incubated in 96 well round bottom plates overnight in 100 μL of 10% FBS/RPMI medium at 37° C. in a 5% CO2 atmosphere. The following morning the medium was removed and 90 μL of a 1% DMSO solution of test compound solution was added and the plates incubated for 1 hour. 10 μL of TNF-α was added at its EC50 (normally 6 ng/mL FAC) to each well and the plate incubated for 5 hours. 100 μL of luciferase buffer was added, and after 10 minutes luminescence was read on a Wallac Victor 1420 Multilabel Counter. The data obtained from the Wallac Victor was converted into % inhibition data or IC50 measured in μM.

Another assay addresses T1, CXCR1 (Homo sapiens, UniProt P25024).
T1 construct: host or cells: CHO cells
T1 sequence (P25024 1-350): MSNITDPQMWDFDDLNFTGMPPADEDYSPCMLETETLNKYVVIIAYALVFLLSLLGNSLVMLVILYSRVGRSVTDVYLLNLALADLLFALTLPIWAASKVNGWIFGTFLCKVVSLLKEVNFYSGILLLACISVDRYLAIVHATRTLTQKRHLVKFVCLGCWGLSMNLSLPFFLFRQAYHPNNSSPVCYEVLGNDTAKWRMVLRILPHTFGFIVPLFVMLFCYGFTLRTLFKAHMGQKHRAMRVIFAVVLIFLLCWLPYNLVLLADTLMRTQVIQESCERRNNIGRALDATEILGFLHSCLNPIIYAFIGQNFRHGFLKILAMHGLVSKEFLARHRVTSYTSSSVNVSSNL
Briefly: CXCR1 radioligand binding assay with 125I labeled IL-8. As to conditions: human recombinant CHO cells; for IC50: percent inhibition or IC50, read-out: CXCR1 inh. An excerpt:
(§1) This assay is a radioligand binding assay in human recombinant CHO cells with ^125I labeled IL-8 as the ligand. The assay procedure is described in Ahuja, S. K.; Murphy, P. M;.

The next assay concerns the target T2, CXCR2 (Homo sapiens, UniProt P25025).
T2 construct: host or cells: CHO cells
T2 sequence (P25025 1-360): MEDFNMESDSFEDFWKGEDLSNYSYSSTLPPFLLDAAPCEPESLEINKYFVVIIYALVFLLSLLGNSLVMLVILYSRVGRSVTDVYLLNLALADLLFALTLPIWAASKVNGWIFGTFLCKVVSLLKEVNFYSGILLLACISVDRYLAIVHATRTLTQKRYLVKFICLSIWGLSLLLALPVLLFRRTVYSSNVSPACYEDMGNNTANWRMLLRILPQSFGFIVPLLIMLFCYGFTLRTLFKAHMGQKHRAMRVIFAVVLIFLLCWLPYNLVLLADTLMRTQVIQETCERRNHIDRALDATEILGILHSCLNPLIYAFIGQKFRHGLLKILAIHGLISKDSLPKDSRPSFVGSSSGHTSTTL
The assay can be described thus: CXCR2 radioligand binding assay with 125I labeled IL-8. Particulars: human recombinant CHO cells; for IC50: percent inhibition or IC50, read-out: CXCR2 2 inh.; for CXCR2 2 inh.: percent inhibition or IC50.
From the text: as §1

With `CCCOC(=O)[C@H]1[C@H](C(=O)OCC[Si](C)(C)C)C2C/C(=N\OCc3nnsc3Cl)[C@H]1c1cc(O)ccc12` (racemic) [Example 71, 11-(5-Chloro-[1,2,3]thiadiazol-4-ylmethoxyimino)-4-hydroxy-tricyclo[6.2.2.0^2,7]dodeca-2(7),3,5-triene-9,10-dicarboxylic acid 10-propyl ester 9-(2-trimethylsilanyl-ethyl) ester], the IC50 was less than 10 µM with A549 cells and 10 to 50 µM with NFκB.
Consider `CCCOC(=O)[C@H]1[C@H](C(=O)OCC[Si](C)(C)C)C2C/C(=N\OCc3cccc(F)c3)[C@H]1c1cc(O)ccc12` (racemic) [Example 72, 11-(3-Fluoro-benzyloxyimino)-4-hydroxy-tricyclo[6.2.2.0^2,7]dodeca-2(7),3,5-triene-9,10-dicarboxylic acid 10-propyl ester 9-(2-trimethylsilanyl-ethyl) ester], for which the IC50 with A549 cells was less than 10 µM.
`CCCOC(=O)[C@H]1[C@H](C(=O)OCC[Si](C)(C)C)C2C/C(=N\OCC(=O)N3CCN(c4ccccc4)CC3)[C@H]1c1cc(O)ccc12` (stereo in doubt) [Example 73]: in the assay with NFκB, the IC50 fell in the range of 10 to 50 µM.
Take `CCCCCN(CCCCC)C(=O)[C@@H]1[C@H](C(=O)N(C)CC(=O)NCc2c(OC)cc(OC)cc2OC)C2CC(=O)[C@H]1c1cc(OCc3ccc(C(=O)N4CCC[C@H]4C(=O)N(C)C)cc3)ccc12` [Example 5]: in the assay with A549 cells, the IC50 fell in the range of 10 to 50 µM.
Regarding `CCCOC(=O)[C@H]1[C@H](C(=O)OCC[Si](C)(C)C)C2CC(=O)[C@H]1c1ccccc12` [Example 52], in the assay with A549 cells, the inhibition at 20 µM was 6 to 64%. For the same molecule, the IC50 in the assay on NFκB is 10 to 50 µM.
For `CCCOC(=O)[C@H]1[C@H](C(=O)OCC[Si](C)(C)C)C2C/C(=N\NCCO)[C@H]1c1cc(O)ccc12` [Example 56], the IC50 in the assay with A549 cells is less than 10 µM.
As for `CCCOC(=O)[C@H]1[C@H](C(=O)OCC[Si](C)(C)C)C2C/C(=N\NS(=O)(=O)c3ccccc3)[C@H]1c1cc(O)ccc12` [Example 58], the IC50 in the assay with A549 cells is 10 to 50 µM.
For `CCCOC(=O)[C@H]1[C@H](C(=O)OCC[Si](C)(C)C)C2C/C(=N/OCC(=O)N3CCN(c4ccccc4)CC3)[C@H]1c1cc(O)ccc12` [Example 74], the IC50 with NFκB was in the range of 10 to 50 µM.
In the case of `CCCOC(=O)[C@H]1[C@H](C(=O)OCC[Si](C)(C)C)C2C/C(=N\NC(=S)NC)[C@H]1c1cc(O)ccc12` [Example 81], the IC50 with A549 cells is less than 10 µM.
For the molecule `CCCOC(=O)[C@H]1[C@H](C(=O)OCC[Si](C)(C)C)C2CC(O)[C@H]1c1cc(O)ccc12` (some centres unmarked) [Example 82], the IC50 with A549 cells is less than 10 µM; with NFκB, 10 to 50 µM.
With `CCCOC(=O)[C@H]1[C@H](C(=O)OCC[Si](C)(C)C)C2CC(NCc3ccc(C)cc3)[C@H]1c1cc(O)ccc12` (some centres unmarked) [Example 84], the IC50 is less than 10 µM in the assay on A549 cells and 10 to 50 µM in the assay with NFκB.
In the case of `CCCNC1CC2c3ccc(O)cc3[C@H]1[C@@H](C(=O)OCCC)[C@@H]2C(=O)OCC[Si](C)(C)C` (some centres unmarked) [Example 85], in the assay with NFκB, the IC50 is 10 to 50 µM.
For `CCCOC(=O)[C@H]1[C@H](C(=O)OCC[Si](C)(C)C)C2CC(NC)[C@H]1c1cc(O)ccc12` (some centres unmarked) [Example 86], the IC50 with NFκB lay within 10 to 50 µM.
On the same count and under the same terms, as for `CCCOC(=O)[C@H]1[C@H](C(=O)OCC[Si](C)(C)C)C2CC(N(Cc3ccc(C)cc3)C(C)=O)[C@H]1c1cc(O)ccc12` (some centres unmarked) [Example 91], the figure is 10 to 50 µM; as for `CCCOC(=O)[C@H]1[C@H](C(=O)OCC[Si](C)(C)C)C2CC(N(C)C(C)=O)[C@H]1c1cc(OC(C)=O)ccc12` (some centres unmarked) [Example 92], 10 to 50 µM.
As for `CCCOC(=O)[C@H]1[C@H](C(=O)OCC[Si](C)(C)C)C2CC(N(C)C(C)=O)[C@H]1c1cc(O)ccc12` (some centres unmarked) [Example 94], the IC50 in the assay with NFκB lay in the range of 10 to 50 µM.
As for `COc1ccc(COC(=O)[C@H]2[C@H](C(=O)OCC[Si](C)(C)C)C3CC(O)[C@H]2c2cc(O)ccc23)c(OC)c1` (some centres unmarked) [Example 95], the inhibition at 20 µM in the assay with A549 cells fell in the range of 6 to 64%.
As for `COc1ccc(COC(=O)[C@H]2[C@H](C(=O)OCC[Si](C)(C)C)C3CC(O)[C@H]2c2cc(O)ccc23)c(OC)c1` (some centres unmarked) [Example 96], the IC50 in the assay on A549 cells was less than 10 µM.
As to `CCCOC(=O)[C@H]1[C@H](C(=O)OCC[Si](C)(C)C)C2CC3(OCCO3)[C@H]1c1cc(O)ccc12` [Example 97], the inhibition at 20 µM in the assay with A549 cells was in the range of 6 to 64%. The IC50 in the assay on NFκB lay within 10 to 50 µM.
On to `CCCOC(=O)[C@H]1[C@H](C(=O)OCC[Si](C)(C)C)C2CC(=CC(=O)OCC)[C@H]1c1cc(O)ccc12` [Example 98], for which the inhibition at 20 µM with A549 cells lay in the range of 6 to 64%.
For the molecule `CCCOC(=O)[C@H]1[C@H](C(=O)OCC[Si](C)(C)C)C2CC(C)(O)[C@H]1c1cc(O)ccc12` (some centres unmarked) [Example 99], the IC50 in the assay on NFκB fell in the range of 10 to 50 µM.
With `C=C1CC2c3ccc(O)cc3[C@H]1[C@@H](C(=O)OCCC)[C@@H]2C(=O)OCC[Si](C)(C)C` [Example 101], the IC50 in the assay with A549 cells is less than 10 µM.
`CCCOC(=O)[C@H]1[C@H](C(=O)OCC[Si](C)(C)C)C2CC(O)(CO)[C@H]1c1cc(O)ccc12` (some centres unmarked) [Example 102]: the inhibition at 20 µM with A549 cells was in the range of 6 to 64%.
In the case of `CCCOC(=O)[C@H]1[C@H](C(=O)OCCS(=O)(=O)c2ccc(C)cc2)C2CC(=O)[C@H]1c1cc(O)ccc12` [Example 106], the IC50 in the assay with NFκB was 10 to 50 µM.
Same read-out and setting: as for `CCCOC(=O)[C@H]1[C@H](C(=O)OCCC(C)(C)C)C2CC(=O)[C@H]1c1cc(O)ccc12` [Example 107], the figure is 10 to 50 µM; as for `CCCOC(=O)[C@@H]1C2C(=O)CC(c3ccc(O)cc32)[C@H]1C(=O)OCCC12CC3CC(CC(C3)C1)C2` (some centres unmarked) [Example 108], 10 to 50 µM; as for `CCCOC(=O)[C@@H]1C2C(=O)CC(c3ccc(O)cc32)[C@H]1C(=O)OCCC[Si](C)(C)C` (some centres unmarked) [Example 109], 10 to 50 µM.
As to `C=CCOC(=O)c1ccc(COc2ccc3c(c2)[C@@H]2C(=O)CC3[C@@H](C(=O)N(C)CC(=O)NCc3c(OC)cc(OC)cc3OC)[C@H]2C(=O)OCC[Si](C)(C)C)cc1` [Example 110], the inhibition at 20 µM with A549 cells was in the range of 6 to 64%.
As for `CCCOC(=O)C1C(C(=O)OCC[Si](C)(C)C)C2C/C(=N\Nc3ccccc3Br)[C@H]1c1cc(O)ccc12` (some centres unmarked) [Example 112], the IC50 at CXCR1 is 10 to 50 µM; at CXCR2 it was less than 10 µM. The NFkB inh. result in the assay with NFκB was “* (refers to percent inhibition from 6% to 64%)”.
In the case of `C[Si](C)(C)CCOC(=O)C1C2CC(=O)[C@@H](c3cc(O)ccc32)C1C(=O)OCC[Si](C)(C)C` (some centres unmarked) [Example 113], the IC50 at CXCR1 and at CXCR2 was 10 to 50 µM in each case. The NFkB inh. entry in the assay on NFκB is recorded as “* (refers to percent inhibition from 6% to 64%)”.
In the case of `CCCOC(=O)C1C(C(=O)OCC[Si](C)(C)C)C2C[C@H](Nc3ccccc3)[C@H]1c1cc(O)ccc12` (some centres unmarked) [Example 114], in the assay with NFκB, the NFkB inh. entry is recorded as “* (refers to percent inhibition from 6% to 64%)”. Moreover, the “CXCR2 2 inh.” value on CXCR2 is given as “* (refers to percent inhibition from 10-36%)”.
As to `CCCOC(=O)C1C(C(=O)OCC[Si](C)(C)C)C2C[C@@H](Nc3ccccc3)[C@H]1c1cc(O)ccc12` (some centres unmarked) [Example 115], the CXCR1 inh. result on CXCR1 (percent inhibition or IC50) is listed as “* (refers to percent inhibition from 10-36%)”. In the assay with NFκB, the NFkB inh. entry was “* (refers to percent inhibition from 6% to 64%)”. Besides, the “CXCR2 2 inh.” value on CXCR2 was “* (refers to percent inhibition from 10-36%)”.
